Test system: HCV genotype 1b replicon
Assay: HCV replicon assay (1b_Huh-Luc/Neo-ET cell line, luciferase readout)
Assay type: cell-based
Conditions: Hepatitis C virus, Huh-7, 72 h, read-out: Inhibition of HCV genotype 1b
Summary of the method: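 Luciferase activity (Bright-Glo) after 72 h compound exposure, in triplicate, measured replicon levels in Huh 7-derived 1b_Huh-Luc/Neo-ET cells. EC50 was fitted from percent-of-control values and determined in repeat runs.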

SMILES: COC(=O)N[C@H](C(=O)N1CCC[C@H]1c1ncc(-c2ccc(-c3ccc4cc(-c5cnc([C@@H]6CCCN6C(=O)[C@@H](NC(=O)OC)C6CC6)[nH]5)ccc4c3)cc2)[nH]1)C1CC1 [compound 143]
- EC50: < 1 nM

SMILES: COC(=O)N[C@H](C(=O)N1CCC[C@H]1c1ncc(-c2ccc(-c3ccc4cc(-c5c[nH]c([C@@H]6CCCN6C(=O)[C@@H](NC(=O)OC)C6CCOCC6)n5)ccc4c3)cc2)[nH]1)C(C)C [compound 47]
- EC50: < 1 nM

SMILES: COC(=O)N[C@@H](C)C(=O)N1CCC[C@H]1c1nc(-c2ccc3nc(C45CCC(c6cnc([C@@H]7CCCN7C(=O)[C@H](C)NC(=O)OC)[nH]6)(CC4)CC5)ccc3c2)c[nH]1 [compound 266]
- EC50: < 1 nM

SMILES: COC(=O)N[C@H](C(=O)N1CCC[C@H]1c1ncc(-c2ccc(-c3ccc4cc(-c5c[nH]c([C@@H]6CCCN6C(=O)[C@@H](NC(=O)OC)C6CCOCC6)n5)cnc4c3)nc2)[nH]1)C(C)C [compound 61]
- EC50: < 1 nM

SMILES: COC(=O)N[C@H](C(=O)N1CCC[C@H]1c1nc2ccc(-c3ccc4cc(-c5ccc6nc([C@@H]7CCCN7C(=O)[C@@H](NC(=O)OC)C(C)C)[nH]c6c5)ccc4c3)cc2[nH]1)C(C)C [compound 276]
- EC50: < 1 nM

SMILES: COC(=O)N[C@H](C(=O)N1CCC[C@H]1c1ncc(-c2ccc(-c3ccc4cc(-c5c[nH]c([C@@H]6CCCN6C(=O)[C@H](NC(=O)OC(C)(C)C)c6ccccc6)n5)ccc4n3)cn2)[nH]1)C(C)C [compound 70]
- EC50: < 1 nM

SMILES: COC(=O)N[C@H](C(=O)N1CCC[C@H]1c1nc(-c2ccc3nc(-c4ccc(-c5cnc([C@@H]6CCCN6C(=O)[C@@H](NC(=O)OC)C(C)C)[nH]5)nc4)ccc3c2)c[nH]1)C(C)C [compound 53]
- EC50: < 1 nM

SMILES: CCNC(=O)N[C@@H](C(=O)N1CCC[C@H]1c1nc(-c2ccc3nc(-c4ccc(-c5cnc([C@@H]6CCCN6C(=O)[C@@H](NC(=O)OC)C(C)C)[nH]5)cc4)ccc3c2)c[nH]1)c1ccccc1 [compound 37]
- EC50: < 1 nM

SMILES: COC(=O)N[C@H](C(=O)N1CCC[C@H]1c1ncc(-c2ccc(-c3ccc4cc(-c5c[nH]c([C@@H]6CCCN6C(=O)[C@H](NC(=O)OC)c6ccccc6)n5)cnc4c3)cc2)[nH]1)C(C)C [compound 45]
- EC50: < 1 nM

SMILES: COC(=O)N[C@H](C(=O)N1CCC[C@H]1c1ncc(-c2ccc3cc(-c4ccc(-c5cnc([C@@H]6CCCN6C(=O)[C@H](NC(=O)OC)c6ccccc6)[nH]5)c(F)c4)ncc3c2)[nH]1)C1CCOCC1 [compound 127]
- EC50: < 1 nM

SMILES: COC(=O)N[C@H](C(=O)N1CCC[C@H]1c1ncc(-c2ccc(-c3cccc4c(-c5cnc([C@@H]6CCCN6C(=O)[C@@H](NC(=O)OC)C(C)C)[nH]5)cccc34)cc2)[nH]1)C(C)C [compound 20]
- EC50: < 1 nM

SMILES: COC(=O)N[C@H](C(=O)N1CCC[C@H]1c1nc(-c2cnc3cc(-c4ccc(-c5cnc([C@@H]6CCCN6C(=O)[C@@H](NC(=O)OC)C6CCOCC6)[nH]5)cc4)ccc3c2)c[nH]1)C1CCOCC1 [compound 73]
- EC50: < 1 nM

SMILES: COC(=O)N[C@@H](C(=O)N1CCC[C@H]1c1ncc(-c2ccc(-c3nc4cc(-c5cnc([C@@H]6CCCN6C(=O)[C@H](NC(=O)OC)c6ccccc6)[nH]5)ccc4o3)cc2)[nH]1)c1ccccc1 [compound 237]
- EC50: < 1 nM

SMILES: COC(=O)N[C@H](C(=O)N1CCC[C@H]1c1nc(-c2ccc3nc(-c4ccc(-c5cnc([C@@H]6CCCN6C(=O)[C@@H](NC(=O)OC)C6CCOCC6)[nH]5)cc4)ccc3c2)c[nH]1)C(C)C [compound 42]
- EC50: < 1 nM

SMILES: COC(=O)N[C@H](C(=O)N1CCC[C@H]1c1ncc(-c2ccc3cc(-c4ccc5nc([C@@H]6CCCN6C(=O)[C@@H](c6ccccc6)N6CCOCC6)[nH]c5c4)ccc3c2)[nH]1)C(C)C [compound 213]
- EC50: < 1 nM

SMILES: COC(=O)N[C@H](C(=O)N1CCC[C@H]1c1ncc(-c2ccc(-c3ccc4cc(-c5cnc([C@@H]6CCCN6C(=O)[C@@H](NC(=O)OC)C6CCOCC6)[nH]5)ccc4n3)c(F)c2)[nH]1)C(C)C [compound 120]
- EC50: < 1 nM

SMILES: COC(=O)N[C@H](C(=O)N1CCC[C@H]1c1nc(-c2ccc3cc(-c4ccc(-c5cnc([C@@H]6CCCN6C(=O)[C@@H](NC(=O)OC)C(C)C)[nH]5)cc4C)ccc3c2)c[nH]1)C(C)C [compound 85]
- EC50: < 1 nM

SMILES: COC(=O)N[C@H](C(=O)N1CCC[C@H]1c1ncc(-c2ccc(-c3ccc4cc(-c5c[nH]c([C@@H]6CCCN6C(=O)[C@@H](c6ccccc6)N6CCCC6)n5)ccc4c3)cc2)[nH]1)C(C)C [Compound 9]
- EC50: < 1 nM

SMILES: COC(=O)N[C@H](C(=O)N1CCC[C@H]1c1nc2ccc(-c3cc4ccc(-c5cnc([C@@H]6CCCN6C(=O)[C@@H](NC(=O)OC)C6CCOCC6)[nH]5)cc4cn3)cc2[nH]1)C(C)C [compound 216]
- EC50: < 1 nM

SMILES: COC(=O)N[C@H](C(=O)N1CCC[C@H]1c1ncc(-c2ccc(-c3nc4ccc(-c5cnc([C@@H]6CCCN6C(=O)OCc6ccccc6)[nH]5)cc4s3)cc2)[nH]1)C(C)C [compound 246]
- EC50: < 1 nM

SMILES: COC(=O)N[C@H](C(=O)N1CCC[C@H]1c1ncc(-c2ccc3cc(-c4ccc5nc([C@@H]6CCCN6C(=O)[C@H](NC(=O)N6CC[C@H](O)C6)c6ccccc6)[nH]c5c4)ccc3c2)[nH]1)C(C)C [compound 185]
- EC50: < 1 nM

SMILES: COC(=O)N[C@H](C(=O)N1CCC[C@H]1c1ncc(-c2ccc3cc(-c4ccc(-c5cnc([C@@H]6CCCN6C(=O)[C@H](NC(=O)OC6CCOCC6)c6ccccc6)[nH]5)cc4F)ncc3c2)[nH]1)C(C)C [compound 153]
- EC50: < 1 nM

SMILES: COC(=O)N[C@H](C(=O)N1CCC[C@H]1c1nc(-c2ccc3nc(-c4ccc(-c5cnc([C@@H]6CCCN6C(=O)[C@H](NC(=O)OC)c6ccccc6)[nH]5)cc4F)ccc3c2)c[nH]1)C(C)C [compound 107]
- EC50: < 1 nM

SMILES: COC(=O)N[C@@H](C(=O)N1CCC[C@H]1c1nc(-c2ccc3nc(-c4ccc(-c5cnc([C@@H]6CCCN6C(=O)[C@H](NC(=O)OC)c6ccccc6)[nH]5)c(F)c4)ccc3c2)c[nH]1)c1ccccc1 [compound 109]
- EC50: < 1 nM

SMILES: COC(=O)N[C@H](C(=O)N1CCC[C@H]1c1ncc(-c2ccc3oc(-c4ccc(-c5cnc([C@@H]6CCCN6C(=O)[C@H](NC(=O)OC)c6ccccc6)[nH]5)cc4)nc3c2)[nH]1)C(C)C [compound 260]
- EC50: < 1 nM

SMILES: COC(=O)N[C@H](C(=O)N1CCC[C@H]1c1nc2ccc(-c3ccc4cc(-c5cnc([C@@H]6CCCN6C(=O)[C@H](NC(=O)OC)c6ccccc6)[nH]5)cnc4c3)cc2[nH]1)C(C)C [compound 195]
- EC50: < 1 nM

SMILES: COC(=O)N[C@@H](C(=O)N1CCC[C@H]1c1nc(-c2ccc3c(=O)n(-c4ccc(-c5cnc([C@@H]6CCCN6C(=O)[C@H](NC(=O)OC)c6ccccc6)[nH]5)cc4)ccc3c2)c[nH]1)c1ccccc1 [compound 288]
- EC50: < 1 nM

SMILES: COC(=O)N[C@H](C(=O)N1CCC[C@H]1c1nc(-c2ccc3nc(-c4ccc(-c5cnc([C@@H]6CCCN6C(=O)[C@@H](NC(=O)OC)C(C)C)[nH]5)cc4)cnc3c2)c[nH]1)C(C)C [compound 11]
- EC50: < 1 nM

SMILES: COC(=O)N[C@H](C(=O)N1CCC[C@H]1c1ncc(-c2ccc3cc(-c4ccc5nc([C@@H]6CCCN6C(=O)[C@@H](NC(=O)OC)[C@@H](C)O)[nH]c5c4)ccc3c2)[nH]1)[C@@H](C)O [compound 175]
- EC50: < 1 nM

SMILES: COC(=O)N[C@H](C(=O)N1CCC[C@H]1c1ncc(-c2ccc3cc(-c4ccc(-c5cnc([C@@H]6COCCN6C(=O)[C@H](NC(=O)OC)c6ccccc6)[nH]5)cc4)ccc3c2)[nH]1)C(C)C [compound 131]
- EC50: < 1 nM
